Measured values published in PMC6625372 (Frontiers in Oncology, 2019).

How the values were obtained:
CLB-BAR [1] = test: Apoptosis analysis, cleaved PARP immunoblot; format: cell-based; conditions: 100 nM, 24 h
CLB-GE [2] = test: Cell cycle analysis (DAPI, NucleoCounter NC-3000); conditions: 24 h, 75 and 150 nM
CLB-PE = test: Apoptosis analysis, cleaved PARP immunoblot; format: cell-based; conditions: 100 nM, 24 h
Experimental: (§1) Supplementary Figure 3. Investigation of apoptosis in wild type neuroblastoma cell lines when treated with alectinib. […] Cell lysates were immunoblotted for PARP and ERK (employed as loading control). […] Three independent experiments were performed.

IMR-32 = test: Apoptosis analysis, cleaved PARP immunoblot; format: cell-based; conditions: IMR-32, 100 nM, 24 h
Experimental: as §1

[3] = tested on: SK-N-AS (11q-del, K-RasQ61K); test: Apoptosis analysis, cleaved PARP immunoblot; format: cell-based; conditions: 100 nM, 24 h
SK-N-AS = test: Cell cycle analysis (DAPI, NucleoCounter NC-3000); conditions: SK-N-AS control cell line, 24 h, 75 and 150 nM
CLB-BAR [4] = test: Cell cycle analysis (DAPI, NucleoCounter NC-3000); conditions: 24 h, 75 and 150 nM
CLB-GE [5] = test: Apoptosis analysis, cleaved PARP immunoblot; format: cell-based; conditions: 100 nM, 24 h
CLB-BAR cells = test: Neuroblastoma xenograft mouse model with tumor immunohistochemistry; format: in vivo, BALB/cAnNRj-Foxn1nu mice; conditions: for CD31 (vascularization) in tumors / Ki-67 positivity in tumors, analysis by Ilastik / cleaved caspase positive apoptotic cells in tumors vs vehicle / phospho-histone H3 in tumors vs vehicle / Ki-67 manual analysis, lower median when compared to vehicle (95% CI): day 14; for CD31 (vascularization) in tumors / Ki-67 positivity in tumors, analysis by Ilastik / cleaved caspase positive apoptotic cells in tumors vs vehicle / phospho-histone H3 in tumors vs vehicle: alectinib 20 mg/kg, crizotinib 80 mg/kg once daily; for Ki-67 manual analysis, lower median when compared to vehicle (95% CI): counts normalized against vehicle, 4 independent investigators
Experimental: Results for repotrectinib will be presented elsewhere. […] Tumor volume was measured by calipers every second day and calculated by the following equation: V = (π/6) × L × W^2 (V, volume; L, longest; W, width).
At the end of the experiment xenograft tumors (n = 5 for each tumor category) were harvested and fixed in 4% paraformaldehyde for 72 h. Following fixation, the tumors were imbedded in paraffin blocks and sectioned in […] slices with a manual microtome. Heat-induced epitope retrieval (HIER), using citrate buffer 0.01 M, pH 6, was performed before staining. HIER was achieved through a sequence where citrate buffer, containing the slides, was brought up to boiling, sub-boiled for 5 min following 10 s of intermediate cooling. The sequence was performed three times with cooling (5 min) in between. Following washing in distillated H2O (3 × 5 min), the slides were immerged in 3% H2O2 for 15 min and then washed in tris-buffered saline-Tween 20 (TBST) for 5 min. A hydrophobic pen was used to set a margin encircling the samples on the slides. […] The slides were incubated for 48 h in a cold room after being covered with antibody diluent. […] Additional washing steps in TBST (3 × 5 min) were carried out. […] The slides were counterstained with Mayer's hematoxylin solution (Sigma-Aldrich SLBK8961V), dehydrated and mounted.
Hamamatsu NanoZoomer-SQ Digital slide scanner (C13140-01) with a x20 (NA 0.75) objective was used to obtain digital images of the slides. Slides were randomly blinded to the investigator. For each of the blinded slides, a representative 1 mm^2 area was selected employing NanoZoomer Digital Pathology viewer. The slide-image was cropped, containing the area of interest, and saved, as a TIF-file at × 20 resolution. The saved TIF-files were cropped, using ImageJ (Fiji) ([44]), into merely encompassing the 1 mm^2 area of interest.
The 6–7 images were then uploaded into Ilastik ([45]), an interactive machine-learning toolkit, and used as a learning foundation for the software (see program code, Supplementary Data Sheet 3). Once the software analyzed the learning images, the whole batches were processed in Ilastik. The output was then transferred to ImageJ where a macro (see program code, Supplementary Data Sheet 2) calculated the area of staining. The pixel size acquired from NanoZoomer Digital Pathology viewer was accounted for in the macro. Ki-67 immunohistochemistry was also analyzed manually. […] Ninety five percent confidence intervals for the difference between median were retrieved with GraphPad.
GraphPad Prism 7.0 was used for statistical analysis. A non-parametric test was performed acquiring P-values by applying a Mann-Whitney test.

## CCc1cc2c(cc1N1CCC(N3CCOCC3)CC1)C(C)(C)c1[nH]c3cc(C#N)ccc3c1C2=O [alectinib]
CLB-BAR [1]
  cleaved PARP levels: significant increase of cleaved PARP levels
CLB-GE [2]
  cell cycle progression, G1 accumulation: increased G1 accumulation
CLB-PE
  cleaved PARP levels: no difference was observed
IMR-32
  cleaved PARP levels: no difference was observed
[3]
  cleaved PARP levels: no difference was observed
SK-N-AS
  cell cycle progression, G1 accumulation: not observed
CLB-BAR [4]
  cell cycle progression, G1 accumulation: increased G1 accumulation
CLB-GE [5]
  cleaved PARP levels: significant increase of cleaved PARP levels
CLB-BAR cells; 20 mg/kg bodyweight once daily, 14 days, vs vehicle
  growth of neuroblastoma xenografts: effectively abrogated growth
CLB-BAR cells; 20 mg/kg once daily, 14 days
  body weight and side effects during treatment: No difference in body weight or obvious side effects
CLB-BAR cells; 20 mg/kg once daily, day 6 p = 0.0222, day 8 p < 0.0001, day 14 p = 0.0072
  xenograft tumor volume compared with vehicle: significantly reduced
CLB-BAR cells; alectinib 20 mg/kg vs crizotinib 80 mg/kg once daily, 14 days
  tumor growth inhibition compared with crizotinib: more effective than with crizotinib
CLB-BAR cells
  CD31 (vascularization) in tumors: significant increase
  Ki-67 positivity in tumors, analysis by Ilastik: non-significant decrease
  cleaved caspase positive apoptotic cells in tumors vs vehicle: significantly lower
  phospho-histone H3 in tumors vs vehicle: significant decrease
  Ki-67 manual analysis, lower median when compared to vehicle (95% CI): 0.46 (95% CI 0.32–0.52)

## C[C@@H](Oc1cc(-c2cnn(C3CCNCC3)c2)cnc1N)c1c(Cl)ccc(F)c1Cl [crizotinib]
CLB-BAR cells
  CD31 (vascularization) in tumors: significant increase
  Ki-67 positivity in tumors, analysis by Ilastik: modest, but significant reduction
  cleaved caspase positive apoptotic cells in tumors vs vehicle: non-significant decrease
  phospho-histone H3 in tumors vs vehicle: not observed
  Ki-67 manual analysis, lower median when compared to vehicle (95% CI): 0.49 (95% CI 0.47–0.50)
